Legend:
Type in all cases: cell-based, human
[1] = system: HCT116 cells; test: Calcein-AM cell viability staining, 24h; details: HCT116, 24h, 0.25-12.5 μM
Protocol: (§1) Figure 4 HDP-mediated cytotoxicity towards tumor cells Quantitative analysis of direct cytotoxicity towards tumor cells following a 24h incubation period with increasing HDP concentrations. Viability was assessed using Calcein-AM staining. Remaining viable tumor cells were quantified in comparison to untreated controls, which were set to be =1. […] Values are given as the mean x-fold increase ± SD. *p<0.05 vs. NK11; **p<0.01 vs. NK11.
(§2) This assay is based on Calcein-acetoxymethylester (Calcein-AM; Invitrogen, Darmstadt, Germany) staining to detect viable cells within a culture. Tumor and normal (PBL) cells (1-2 × 10^4 cells/well in triplicates) were seeded in 96-well plates and incubated overnight. Thereafter, peptides were added in increasing concentrations (ranging from 0.25 μM – 12.5 μM). Untreated cells served as living cell control. Medium was removed after 1h or 24h, respectively. Calcein-AM ([…]) was added and incubated for 30 min (37°C, 5% CO2). Analysis was performed on a fluorescence multi-well plate reader (Tecan Infinite® M200, Crailsheim, Germany) at an excitation wavelength of 485 nm (emission 535 nm). For estimation of cell viability, the relative fluorescence intensities of Calcein-AM-stained non-treated cells (=live control) were set to be 1, and fluorescence intensities of samples were calculated. Data of at least three independent experiments each performed in […] are given.

[2] = system: HROC24 cells; test: Calcein-AM cell viability staining, 24h; details: HROC24, 24h, 0.25-12.5 μM
Protocol: as §1, §2

[3] = system: HROC24 cells; test: Apoptosis/necrosis assay, YO-PRO-1/PI flow cytometry; details: for Levels of viable HROC24 cells: 24h, higher concentrations
Protocol: (§3) Figure 5 Apoptosis/necrosis assay and Western blot analysis (A, B) HROC18 and HROC24 cells were exposed to increasing HDP concentrations for a period of 24 hours. Tumor cells were stained with YO-PRO-1 for detecting early and late apoptotic tumor cells. Prior to flow cytometric analysis, PI was added to detect necrotic cells, as well. (A) Representative dot plots showing HDP-treated HROC24 cells at a concentration of 5 μM. Lower right quadrant: early apoptotic cells; upper right quadrant: late apoptotic cells; upper left quadrant: necrotic cells. (B) For cell death quantification, values of background cell death (=untreated controls) were subtracted from values of HDP-treated cells. Left panel: HROC24 cell; right panel: HROC18 cells. (C, E) Representative western blot results showing HDP-treated HROC24 cells (20 μg of total protein per lane). (D, F) Quantitative analysis of BAX and HSP90 expression in HDP-treated cells was done as described in material & methods. Expression levels of untreated cells were set to be =1 and x-fold increases of HDP-exposed cells were calculated. […] Values are given as mean ± SD.
(§4) Cell death was quantified by YO-PRO-1 (Invitrogen) and PI double staining. Selected tumor cells (HROC24 and HROC18, 1 × 10^4 cells/well) were seeded in 24-well plates and incubated overnight. Thereafter, peptides were added in increasing concentrations (ranging from 0.25 μM – 12.5 μM). Untreated cells served as living control. Following a 24-hour incubation period, supernatants were collected; cells were trypsinized and washed in PBS. Cells were stained with YO-PRO-1 (final concentration: 0.2 μM) for 20 min at room temperature. Prior to flow cytometric analysis, PI was added at a final concentration of 100 μg/ml. For cell death quantification, values of background cell death (=untreated controls) were subtracted from values of HDP-treated cells.

[4] = system: HROC18 cells; test: as above; details: HROC18, 24h; for total killing: background cell death subtracted
Protocol: as §3, §4

[5] = system: HROC107 cells; test: Calcein-AM cell viability staining, 24h; details: HROC107, 24h, 0.25-12.5 μM
Protocol: as §1, §2

[6] = system: HROC113 cells; test: Calcein-AM cell viability staining, 24h; details: HROC113, 24h, 0.25-12.5 μM
Protocol: as §1, §2

[7] = system: HROC60 cells; test: Calcein-AM cell viability staining, 24h; details: HROC60, 24h
Protocol: as §1, §2

[8] = system: peripheral blood lymphocytes (PBL); test: Lymphotoxicity, Calcein-AM viability of PBL; details: PBL of six healthy donors, 24h, 0.25-12.5 μM
Protocol: Figure 6 Hemolysis and lymphotoxicity assays (A) Hemolytic activity of HDPs was determined by hemoglobin release from whole blood cells after 120 min incubation. Negative controls were left untreated whereas positive controls (=maximum lysis) were treated with 1% SDS. Hemolytic activity was quantified as described in the material and methods section. (B) PBLs were incubated in the presence of increasing HDP concentrations for a period of 24 hours. Viability was analyzed using Calcein-AM and quantified in comparison to untreated controls, which were set to be =1. […] Experiments were performed in triplicates. Values are given as the mean x-fold increase ± SD.
CRC cell lines HROC18, HROC24, HROC32, HROC40, HROC57, HROC60, HROC69, HROC80, HROC87, HROC107, and HROC113 were established in our lab from patients subsequent to surgical resection. […]
(§5) This assay is based on Calcein-acetoxymethylester (Calcein-AM; Invitrogen, Darmstadt, Germany) staining to detect viable cells within a culture. […] Analysis was performed on a fluorescence multi-well plate reader (Tecan Infinite® M200, Crailsheim, Germany) at an excitation wavelength of 485 nm (emission 535 nm). For estimation of cell viability, the relative fluorescence intensities of Calcein-AM-stained non-treated cells (=live control) were set to be 1, and fluorescence intensities of samples were calculated. […]

[9] = system: CRC tumor cell lines; test: Calcein-AM cell viability staining, short-term exposure (1h); details: 0.25-12.5 μM, three separate experiments
Protocol: According to our classification, we included three PS^high (HCT116, HROC18, and HROC24), three PS^int (HROC40, HROC60, and HROC113), and two PS^low (HROC32 and HROC107) surface-exposed cell lines.
Figure 3 Short-term exposure of HDPs towards tumor cells (A) Representative pictures showing morphological changes in HROC24 cells upon HDP C7A-D21K exposure (25 μM). As a control, HROC24 cells were treated with NK11 (25 μM). (B) Quantitative analysis of direct cytotoxicity towards tumor cells. Tumor cells were treated for 1h with increasing HDP concentrations. Thereafter, viability was assessed using Calcein-AM staining. Remaining viable tumor cells were quantified in comparison to untreated controls, which were set to be =1. […] Values are given as the mean x-fold increase ± SD, *p<0.05 vs. NK11; **p<0.01 vs. NK11.
as §5

KILRGVAKKIMRTFLRRISKDILTGKK [Peptide C7A, NK-2 derivative, Cys7 replaced with Ala]
Lytic activity towards tumor cells [1]: as effective as the reference compound Mellitin | Lytic activity towards tumor cells [2]: as effective as the reference compound Mellitin | Levels of viable HROC24 cells [3]: 25% | total killing [4]: up to 60%

KILRGVAKKIMRTFLRRISKKILTGKK [Peptide C7A-D21K, C7A with Asp21 substituted by Lys]
Killing of tumor cells / viability [5]: most effective in killing these tumor cells | Lytic activity towards tumor cells [1]: as effective as the reference compound Mellitin | Lytic activity towards tumor cells [2]: as effective as the reference compound Mellitin | Killing of tumor cells / viability [6]: most effective in killing these tumor cells | lysis vs. control [7]: > 40% | Levels of viable HROC24 cells [3]: 17% | Tumor killing compared with Melittin ([3]; HROC24, 24h): as effective in tumor killing as Melittin | Tumor killing, ranking [4]: the most effective one and even slightly better than Melittin | total killing [4]: 74%

KISKRILTGKK [NK11, non-toxic control peptide based on NK-2, reference compound]
Lymphocyte viability [8]: did not affect lymphocyte viability | Direct cytotoxicity / tumor cell lysis after short-term exposure [9]: lack of NK11-mediated tumor cell lysis

— PMC4147338, “Host defense peptides for treatment of colorectal carcinoma – a comparative in vitro and in vivo analysis” (Oncotarget, 2014)
